Test results published in patent US5254584A, “N-acetonylbenzamides and their use as fungicides” (Rohm and Haas Company, priority 1992, dated 1993).
≈ marks a conversion by molar mass, not a printed value.

Tests used:
[1] = tested on: Pythium ultimum; assay: Fungitoxicity assay against Pythium ultimum (in vitro, mycelial dry weight); type: cell-based; conditions: Globisporangium ultimum, 48 hours at 25° C., read-out: Pythium EC50
Description: The compounds of Examples 1-20 were tested in vitro for fungicidal activity and phytotoxicity. A. The compounds were tested in vitro for fungicidal activity against Pythium ultimum, Botrytis cinerea and Venturia inaequalis. Fungitoxicity assay against Pythium ultimum: A dilution series of test compound was prepared in dimethylsulfoxide, and 0.1 milliliter (ml) of each dilution was added to 19.9 ml of a liquid asparagine-sucrose broth ([…]. and Katznelson, K., 1971, Can. J. […] Each plate was inoculated with a mycelial plug, 7 millimeters (mm) in diameter, taken from the growing edge of a culture of Pythium ultimum grown on potato dextrose agar. Two replicate plates were used for each treatment. The increase in mycelial dry weight was determined after growth for 48 hours at 25° C. with shaking on a gyrotary shaker at 60 revolutions per minute (rpm). EC50 values were calculated from dose response curves. As used herein, the terminology "EC50" means the concentration of test compound required to inhibit growth by 50% as compared to a control lacking the test compound. Results of the testing for fungicidal activity against the above named fungi are set forth below in Table 3 as Pythium EC50 (ppm), Botrytis EC50 (ppm) and Venturia MIC (ppm), respectively.

[2] = tested on: Botrytis cinerea; assay: Fungitoxicity assay against Botrytis cinerea (in vitro, colony diameter); type: cell-based; conditions: 48 hours at 25° C., read-out: Botrytis EC50
Description: The compounds of Examples 1-20 were tested in vitro for fungicidal activity and phytotoxicity. A. The compounds were tested in vitro for fungicidal activity against Pythium ultimum, Botrytis cinerea and Venturia inaequalis. Fungitoxicity assay against Botrytis cinerea: […] The mixtures were poured immediately into 9 centimeter (cm) diameter petri dishes. Two replicate plates were used for each treatment. Each plate was inoculated with a 7 mm diameter plug taken from the growing edge of a 5 day old culture of B. cinerea on potato dextrose agar. […] Results of the testing for fungicidal activity against the above named fungi are set forth below in Table 3 as Pythium EC50 (ppm), Botrytis EC50 (ppm) and Venturia MIC (ppm), respectively.

[3] = tested on: Venturia inaequalis; assay: Fungitoxicity assay against Venturia inaequalis (in vitro, microtiter MIC); type: cell-based; conditions: 168 h, minimum inhibitory concentration, 7 days at 25° C.
Description: The compounds of Examples 1-20 were tested in vitro for fungicidal activity and phytotoxicity. A. The compounds were tested in vitro for fungicidal activity against Pythium ultimum, Botrytis cinerea and Venturia inaequalis. Fungitoxicity assay against Venturia inaequalis: Test compounds were dissolved in dimethylsulfoxide at 1 milligram per milliliter (mg/ml), and 50 ul added to 950 ul of yeast extract-dextrose medium (YED, 0.4% yeast extract, 2% dextrose) to give 50 part per million (ppm) solutions. Minimum inhibitory concentration (MIC) values were determined using a microtiter assay with twofold serial dilutions of the prepared 50 ppm solutions (100 ul) in YED medium. Inoculum consisted of a spore suspension of V. inaequalis in YED medium at 2.5×10^5 spores per ml. […] Results of the testing for fungicidal activity against the above named fungi are set forth below in Table 3 as Pythium EC50 (ppm), Botrytis EC50 (ppm) and Venturia MIC (ppm), respectively.

[4] = Tobacco root assay for phytotoxicity (in vitro root elongation); conditions: 7 days, 27° C., read-out: Tob. EC50
Description: The compounds of Examples 1-20 were tested in vitro for fungicidal activity and phytotoxicity.
B. The compounds were tested in vitro for phytotoxicity in a tobacco root elongation assay.
Tobacco root assay for Phytotoxicity:
A dilution series of test compound was prepared in dimethylsulfoxide and 20 ul of each dilution was added to 20 ml of molten nutrient medium, consisting of Murashige and Skoog salt base, 2% sucrose and 1% agar, to give the desired concentrations of test compound. The mixtures were poured immediately into 9 cm diameter petri dishes. Surface-sterilized tobacco seeds were placed on each plate (20 seeds per plate) and the plates incubated in a vertical position in a 27° C. incubator with a 16 hour photoperiod. After 7 days the mean root lengths were calculated, and EC50 values determined from dose response curves.
Results of the tobacco root assay are set forth below in Table 3 as Tob. EC50 (ppm).

SMILES	IC50 [1] [µg/mL]	IC50 [2] [µg/mL]	MIC [3] [µg/mL]	IC50 at 168 h [4] [µg/mL]
CCON=Cc1cccc(C(=O)NC(C)(CC)C(=O)C(Cl)Cl)c1 (centres unmarked) [Example 4]	68.4 (≈ 190 µM)	68.9 (≈ 192 µM)	> 25	
CCC(C)(NC(=O)c1cc(Cl)c(C=NOC)c(Cl)c1)C(=O)CCl (centres unmarked) [Example 20, N-[3'-(1'-chloro-3'-methyl-2'-oxopentan)]-3,5-dichloro-4-methoxyiminobenzamide]	0.23 (≈ 0.606 µM)			1 (≈ 2.63 µM)
CCC(C)(NC(=O)c1ccc(C=NOC)c(Cl)c1)C(=O)CCl (centres unmarked) [Example 16, N-[3'-(1'-chloro-3'-methyl-2'-oxopentan)]-3-chloro-4-methoxyiminomethylbenzamide]	0.58 (≈ 1.68 µM)	12.6 (≈ 36.5 µM)	6.25 (≈ 18.1 µM)	11.3 (≈ 32.8 µM)
CCC(C)(NC(=O)c1ccc(C=NOC)cc1)C(=O)CCl (centres unmarked) [Example 10, 3-(4'-Methoxyiminomethylbenzamido)-1-chloro-3-methylpentan-2-one]	1.57 (≈ 5.05 µM)			21.7 (≈ 69.8 µM)
CCC(C)(NC(=O)c1cccc(C(C)=NOC)c1)C(=O)CCl (centres unmarked) [Example 17]	24.2 (≈ 74.5 µM)	97.3 (≈ 300 µM)	> 25	
CCC(C)(NC(=O)c1cccc(C=NOC)c1)C(=O)C(Cl)Cl (centres unmarked) [Example 5, 3-(3'-Methoxyiminomethylbenzamido)-1,1-dichloro-3-methylpentan-2-one]	16.3 (≈ 47.2 µM)	54.6 (≈ 158 µM)	> 25	
CCC(C)(NC(=O)c1cccc(C=NOC)c1)C(=O)CSC#N (centres unmarked) [Example 13, N-[3'-(1'-thiocyano-3'-methyl-2'oxopentan)]-3-methoxyiminomethylbenzamide]	7.38 (≈ 22.1 µM)			> 20
CCC(C)(NC(=O)c1cccc(C=NOC(C)(C)C)c1)C(=O)CCl (centres unmarked) [Example 8]	173 (≈ 489 µM)	> 100	> 25	46.8 (≈ 133 µM)
